The experiment deals with T1, human HIF-PHD2 (Homo sapiens, UniProt Q9GZT9).
T1 construct: FLAG-tagged full length PHD2 expressed in and purified from baculovirus-infected Sf9 cells; FLAG; made in house; host or cells: baculovirus-infected Sf9 cells
Nature of the experiment: HIF-PHD2 inhibition, time resolved fluorescence assay of HIF-1α peptide hydroxylation. The experiment is classed as biochemical. Particulars: FLAG-tagged full length PHD2; 0.2 μM 2-oxoglutarate, 0.5 μM HIF-1α peptide. The procedure: To each well of a 384-well plate, 1 μL of test compounds in DMSO (final concentration ranging from 0.3 nM to 10 uM) were added into 20 μl of assay buffer (50 mM Tris pH 7.4/0.01% Tween-20/0.1 mg/ml bovine serum albumin/10 μM ferrous sulfate/1 mM sodium ascorbate/20 μg/ml catalase) containing 0.15 μg/ml FLAG-tagged full length PHD2 expressed in and purified from baculovirus-infected Sf9 cells. After a 5 min preincubation at room temperature, the enzymatic reactions were initiated by the addition of 4 μL of substrates {final concentrations of 0.2 μM 2-oxoglutarate and 0.5 μM HIF-1α peptide biotinyl-[…] […] After incubation for 45 minutes at room temperature, the reactions were terminated by the addition of a 25 μL quench/detection mix to a final concentration of 1 mM ortho-phenanthroline, 0.1 mM EDTA, 0.5 nM anti-(His)6 LANCE reagent (Perkin-Elmer Life Sciences), 100 nM AF647-labeled streptavidin (Invitrogen), and 2 μg/ml (His)6-VHL complex {S. Tan Protein Expr. Purif.

One may read the IC50 as the concentration at which inhibition is half-maximal. Low readings indicate inhibition by little substance, high ones a need for much substance.

SMILES strings stand for the structures.

T1 sequence (Q9GZT9 whole entry): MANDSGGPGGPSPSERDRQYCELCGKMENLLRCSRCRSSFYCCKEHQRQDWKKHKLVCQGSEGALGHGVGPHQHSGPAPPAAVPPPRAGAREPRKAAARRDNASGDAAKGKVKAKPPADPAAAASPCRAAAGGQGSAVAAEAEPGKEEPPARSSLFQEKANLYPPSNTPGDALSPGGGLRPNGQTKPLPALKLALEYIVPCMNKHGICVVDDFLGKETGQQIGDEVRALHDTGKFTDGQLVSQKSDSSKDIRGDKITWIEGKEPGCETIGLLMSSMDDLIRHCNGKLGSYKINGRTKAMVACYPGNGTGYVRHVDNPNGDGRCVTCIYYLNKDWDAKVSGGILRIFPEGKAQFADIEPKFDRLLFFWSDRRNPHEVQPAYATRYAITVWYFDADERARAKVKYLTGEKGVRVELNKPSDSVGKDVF

Consider `O=C(O)CNC(=O)c1c(O)c2c(n(Cc3cc[nH]n3)c1=O)COC2` [Example 4, 2-(1-((1H-pyrazol-3-yl)methyl)-4-hydroxy-2-oxo-1,2,5,7-tetrahydrofuro[3,4-b]pyridine-3-carboxamido)acetic acid], for which the midpoint of inhibition, the IC50, lay at 9.2 nM.
To `CC(c1ccc(C(F)(F)F)cc1)n1c2c(c(O)c(C(=O)NCC(=O)O)c1=O)COC2` (stereo not shown) [Example 56, 2-(4-hydroxy-2-oxo-1-(1-(4-(trfluoromethyl)phenyl)ethyl)-1,2,5,7-tetrahydrofuro[3,4-b]pyridine-3-carboxamido)acetic acid] belongs 19.6 nM; to `O=C(O)CNC(=O)c1c(O)c2c(n(Cc3cccc(F)c3)c1=O)COC2` [Example 43, 2-(1-(3-fluorobenzyl)-4-hydroxy-2-oxo-1,2,5,7-tetrahydrofuro[3,4-b]pyridine-3-carboxamido)acetic acid], 8.4 nM; to `CC(C)(C)c1ccc(Cn2c3c(c(O)c(C(=O)NCC(=O)O)c2=O)COC3)cc1` [Example 30, 2-(1-(4-(tert-butyl)benzyl)-4-hydroxy-2-oxo-1,2,5,7-tetrahydrofuro[3,4-b]pyridine-3-carboxamido)acetic acid], 4 nM.
`Cc1cc(C#N)ccc1Cn1c2c(c(O)c(C(=O)NCC(=O)O)c1=O)COC2` [Example 49, 2-(1-(4-cyano-2-methylbenzyl)-4-hydroxy-2-oxo-1,2,5,7-tetrahydrofuro[3,4-b]pyridine-3-carboxamido)acetic acid] returned an IC50 of 5.1 nM.
To `Cc1ncsc1Cn1c2c(c(O)c(C(=O)NCC(=O)O)c1=O)COC2` [Example 8, 2-(4-hydroxy-1-((4-methylthiazol-5-yl)methyl)-2-oxo-1,2,5,7-tetrahydrofuro[3,4-b]pyridine-3-carboxamido)acetic acid] belongs 5.2 nM; to `N#Cc1ccccc1Cn1c2c(c(O)c(C(=O)NCC(=O)O)c1=O)COC2` [Example 33, 2-(1-(2-cyanobenzyl)-4-hydroxy-2-oxo-1,2,5,7-tetrahydrofuro[3,4-b]pyridine-3-carboxamido)acetic acid], 4.6 nM; to `O=C(O)CNC(=O)c1c(O)c2c(n(Cc3ccc(F)cc3)c1=O)COC2` [Example 26, 2-(1-(4-fluorobenzyl)-4-hydroxy-2-oxo-1,2,5,7-tetrahydrofuro[3,4-b]pyridine-3-carboxamido)acetic acid], 2.7 nM.
The compound `O=C(O)CNC(=O)c1c(O)c2c(n(Cc3ccc(F)c(F)c3)c1=O)COC2` [Example 31, 2-(1-(3,4-difluorobenzyl)-4-hydroxy-2-oxo-1,2,5,7-tetrahydrofuro[3,4-b]pyridine-3-carboxamido)acetic acid] displayed an IC50 of 2.7 nM.
`O=C(O)CNC(=O)c1c(O)c2c(n(Cc3ccc(F)cn3)c1=O)COC2` [Example 14, 2-(1-((5-fluoropyridin-2-yl)methyl)-4-hydroxy-2-oxo-1,2,5,7-tetrahydrofuro[3,4-b]pyridine-3-carboxamido)acetic acid] displayed an IC50 of 6.6 nM.
To `COC(=O)c1cccc(Cn2c3c(c(O)c(C(=O)NCC(=O)O)c2=O)COC3)c1` [Example 40, 2-(4-hydroxy-1-(3-(methoxycarbonyl)benzyl)-2-oxo-1,2,5,7-tetrahydrofuro[3,4-b]pyridine-3-carboxamido)acetic acid] belongs 8.1 nM.
To `N#Cc1cccc(Cn2c3c(c(O)c(C(=O)NCC(=O)O)c2=O)COC3)c1` [Example 34, 2-(1-(3-cyanobenzyl)-4-hydroxy-2-oxo-1,2,5,7-tetrahydrofuro[3,4-b]pyridine-3-carboxamido)acetic acid] belongs 2.5 nM.
To `NC(=O)c1ccc(Cn2c3c(c(O)c(C(=O)NCC(=O)O)c2=O)COC3)cc1` [Example 60, 2-(1-(4-Carbamoylbenzyl)-4-hydroxy-2-oxo-1,2,5,7-tetrahydrofuro[3,4-b]pyridine-3-carboxamido)acetic acid] belongs 4.3 nM.

The record behind these values is US20170226120A1, “INHIBITORS OF HIF PROLYL HYDROXYLASE” (MERCK SHARP & DOHME CORP., priority 2014, published 2017).
